≈ marks a conversion by molar mass, not a printed value.
Columns and labels:
Format in all cases: cell-based
[1] = test system: Pseudomonas aeruginosa BMH 1; assay: Agar-dilution MIC, pH 8.0 (Table 1); conditions: BMH1, pH 8, read-out: Minimum Inhibitory Concentration
[2] = test system: Staphylococcus aureus ATCC 6538P; assay: Agar-dilution MIC, pH 8.0 (Table 1); conditions: ATCC6538P, pH 8, read-out: Minimum Inhibitory Concentration
[3] = test system: Bacillus subtilis No. 10707; assay: Agar-dilution MIC, pH 8.0 (Table 1); conditions: NO.10707, pH 8, read-out: Minimum Inhibitory Concentration
[4] = test system: Proteus vulgaris ATCC 6897; assay: microbe, parasite or virus in culture; conditions: ATCC6897, pH 8, read-out: Minimum Inhibitory Concentration
[5] = test system: Shigella sonnei ATCC 9290; assay: microbe, parasite or virus in culture; conditions: ATCC9290, pH 8, read-out: Minimum Inhibitory Concentration
[6] = test system: Salmonella typhosa ATCC 9992; assay: Agar-dilution MIC, pH 8.0 (Table 1); conditions: Salmonella enterica, pH 8, read-out: Minimum Inhibitory Concentration
[7] = test system: Krebsiella pneumoniae ATCC 10031; assay: Agar-dilution MIC, pH 8.0 (Table 1); conditions: Klebsiella pneumoniae, ATCC10031, pH 8, read-out: Minimum Inhibitory Concentration
Escherichia coli ATCC 26 = assay: Agar-dilution MIC, pH 8.0 (Table 1); conditions: ATCC26, pH 8, read-out: Minimum Inhibitory Concentration
Escherichia coli KY 8327 [8] = assay: Agar-dilution MIC, pH 8.0 (Table 1); conditions: Escherichia coli, KY8327; E. coli KY 8327, produces gentamicin adenyltransferase; agar-dilution, pH 8.0; read-out: Minimum Inhibitory Concentration
Excerpt: (§1) The former bacterium inactivates kanamycins and gentamicins by adenylation, and the latter inactivates gentamicins by acetylation.

Escherichia coli KY 8348 = assay: Agar-dilution MIC, pH 8.0 (Table 1); conditions: Escherichia coli, KY8348; E. coli KY 8348, produces gentamicin acetyltransferase Type I; agar-dilution, pH 8.0; read-out: Minimum Inhibitory Concentration
Excerpt: as §1

[9] = test system: Staphylococcus aureus 209 P; assay: Agar dilution MIC, pH 7.2 (Table 2); conditions: 209P, pH 7.2, read-out: Minimum Inhibitory Concentration
[10] = test system: Staphylococcus aureus Smith; assay: Agar dilution MIC, pH 7.2 (Table 2); conditions: pH 7.2, read-out: Minimum Inhibitory Concentration
[11] = test system: Bacillus subtilis ATCC 6633; assay: Agar dilution MIC, pH 7.2 (Table 2); conditions: ATCC6633, pH 7.2, read-out: Minimum Inhibitory Concentration
Sarcina lutea ATCC 9341 = assay: Agar dilution MIC, pH 7.2 (Table 2); conditions: Micrococcus luteus, ATCC9341, pH 7.2, read-out: Minimum Inhibitory Concentration
Escherichia coli T-2 = assay: Agar dilution MIC, pH 7.2 (Table 2); conditions: T2, pH 7.2, read-out: Minimum Inhibitory Concentration
Escherichia coli T-5 = assay: Agar dilution MIC, pH 7.2 (Table 2); conditions: T5, pH 7.2, read-out: Minimum Inhibitory Concentration
Escherichia coli KY 8327 [12] = assay: Agar dilution MIC, pH 7.2 (Table 2); conditions: KY8327, E. coli KY 8327, read-out: Minimum Inhibitory Concentration
Escherichia coli KY 8321 = assay: Agar dilution MIC, pH 7.2 (Table 2); conditions: KY8321, pH 7.2, read-out: Minimum Inhibitory Concentration
Escherichia coli KY 8349 = assay: Agar dilution MIC, pH 7.2 (Table 2); conditions: KY8349, E. coli KY 8349, produces neomycin-kanamycin phosphotransferase Type I, read-out: Minimum Inhibitory Concentration
[13] = test system: Pseudomonas aeruginosa BMH 1; assay: Agar dilution MIC, pH 7.2 (Table 2); conditions: BMH1, pH 7.2, read-out: Minimum Inhibitory Concentration
[14] = test system: Pseudomonas aeruginosa KY 8510; assay: Agar dilution MIC, pH 7.2 (Table 2); conditions: KY8510, pH 7.2, read-out: Minimum Inhibitory Concentration
[15] = test system: Pseudomonas aeruginosa KY 8511; assay: Agar dilution MIC, pH 7.2 (Table 2); conditions: KY8511, pH 7.2, read-out: Minimum Inhibitory Concentration
[16] = test system: Pseudomonas aeruginosa KY 8512; assay: Agar dilution MIC, pH 7.2 (Table 2); conditions: KY8512, pH 7.2, read-out: Minimum Inhibitory Concentration
[17] = test system: Pseudomonas aeruginosa KY 8516; assay: Agar dilution MIC, pH 7.2 (Table 2); conditions: KY8516, pH 7.2, read-out: Minimum Inhibitory Concentration
Providencia sp. 164 = assay: Agar dilution MIC, pH 7.2 (Table 2); conditions: Providencia sp. 164, produces gentamicin acetyltransferase Type II, read-out: Minimum Inhibitory Concentration
[18] = test system: Klebsiella pneumoniae No. 8045; assay: Agar dilution MIC, pH 7.2 (Table 2); conditions: NO.8045, pH 7.2, read-out: Minimum Inhibitory Concentration
Proteus mirabilis 1287 = assay: Agar dilution MIC, pH 7.2 (Table 2); conditions: Proteus mirabilis, 1287, pH 7.2, read-out: Minimum Inhibitory Concentration
Proteus vulgaris 6897 = assay: Agar dilution MIC, pH 7.2 (Table 2); conditions: Proteus vulgaris, 6897, pH 7.2, read-out: Minimum Inhibitory Concentration
Proteus morganii KY 4298 = assay: Agar dilution MIC, pH 7.2 (Table 2); conditions: Morganella morganii, KY4298, pH 7.2, read-out: Minimum Inhibitory Concentration

`NC[C@H]1O[C@H](O[C@H]2[C@H](O)[C@@H](O[C@H]3O[C@H](CO)[C@@H](O)[C@H](N)[C@H]3O)[C@H](N)C[C@@H]2N)[C@H](O)[C@@H](O)[C@@H]1O` [Kanamycin A, kanamycin A] was tested, and the MIC [1] was 5.2 µg/mL (≈ 10.7 µM), the MIC [2] was 0.021 µg/mL (≈ 0.0433 µM) and the MIC [3] was 0.021 µg/mL (≈ 0.0433 µM). For the same molecule, the MIC [4] was 0.16 µg/mL (≈ 0.33 µM), the MIC [5] was 0.16 µg/mL (≈ 0.33 µM) and the MIC [6] was 0.088 µg/mL (≈ 0.182 µM). For the same molecule, the MIC [7] was 0.042 µg/mL (≈ 0.0867 µM), the MIC (Escherichia coli ATCC 26) was 0.16 µg/mL (≈ 0.33 µM) and the MIC (Escherichia coli KY 8327 [8]) was 1.04 µg/mL (≈ 2.15 µM). The MIC (Escherichia coli KY 8348) was 0.041 µg/mL (≈ 0.0846 µM), the MIC [9] was 0.2 µg/mL (≈ 0.413 µM) and the MIC [10] was 0.2 µg/mL (≈ 0.413 µM). The MIC [11] was 0.2 µg/mL (≈ 0.413 µM), the MIC (Sarcina lutea ATCC 9341) was 6.25 µg/mL (≈ 12.9 µM) and the MIC (Escherichia coli T-2) was 1.56 µg/mL (≈ 3.22 µM). It also gave an MIC (Escherichia coli T-5) of 1.56 µg/mL (≈ 3.22 µM), an MIC (Escherichia coli KY 8327 [12]) of 50 µg/mL (≈ 103 µM) and an MIC (Escherichia coli KY 8321) of 100 µg/mL (≈ 206 µM). For the same molecule, the MIC (Escherichia coli KY 8349) was greater than 100 µg/mL, the MIC [13] was 12.5 µg/mL (≈ 25.8 µM) and the MIC [14] was 100 µg/mL (≈ 206 µM). For the same molecule, the MIC [15] was 100 µg/mL (≈ 206 µM), the MIC [16] was 12.5 µg/mL (≈ 25.8 µM) and the MIC [17] was greater than 100 µg/mL. The MIC (Providencia sp. 164) was greater than 100 µg/mL, the MIC [18] was 0.4 µg/mL (≈ 0.826 µM) and the MIC (Proteus mirabilis 1287) was 6.25 µg/mL (≈ 12.9 µM). The MIC (Proteus vulgaris 6897) was 3.12 µg/mL (≈ 6.44 µM) and the MIC (Proteus morganii KY 4298) was 1.56 µg/mL (≈ 3.22 µM).

— patent US4055715A, “Method of producing 1-N-[L-(-)-α-hydroxy-γ-aminobutyryl]XK-62-2” (Abbott Laboratories, priority 1974, dated 1977)
